Assays:
TNFα release = assay: LPS-induced TNFα release in human blood diluted 1:5 (ELISA); format: cell-based; conditions: human blood diluted 1:5, LPS 10 μg/ml, 24 h, n = 8
Experimental: In vitro investigations were carried out for influencing the release of the proinflammatory cytokine TNFα in human blood diluted 1:5. Stimulation was carried out using lipopolysaccharide (LPS) of Salmonella abortus equi (10 μg/ml) over the course of 24 h at 37° C. and 5% CO2 in an incubator. The TNFα release was carried out using an ELISA, composed from antibodies from Pharmigen. The results were indicated as the percentage inhibition of LPS-induced TNFα release (Table 1).

[1] = Thymus involution in young rats on intrapulmonary powder administration over 29 days; format: in vivo; conditions: for Toxic dose with significant thymus involution: repeated intrapulmonary administration, 29 days, 1x daily, young rats; for Quotient of toxic dose: therapeutic dose (therapeutic breadth): toxic dose (mg/kg, 29 days) / ID50 (μg/kg, single dose), intrapulmonary, rats
Experimental: In the second experiment, the influence of loteprednol on the thymus development of young rats (21 days old at the start of the experiment) was intensively investigated in comparison to budesonide and fluticasone (see Table 4). After an intrapulmonary long-term administration of the active compound in powder form over the course of 29 days (1× daily) by means of a tube, at the end of the experiment the thymus glands were removed and the organ weight per 100 g of body mass was determined.
(§1) The therapeutic breadth of the corticosteroids was determined with the aid of the quotient of the dose (mg/kg) with significant thymus involution (toxic dose) on repeated intrapulmonary administration over the course of 29 days (1× daily) and the therapeutic dose. The therapeutic dose was determined in the asthma model of late-phase eosinophilia on actively sensitized brown Norway rats. The active compound was administered to the sensitized brown Norway rats under anesthesia intrapulmonarily 2 hours before an allergen provocation (challenge) and 24 hours later the lungs of the animals were lavaged under deep anesthesia. The number of eosinophilic granulocytes in the pulmonary lavage fluid of untreated and active compound-treated rats was then determined. Corticosteroids such as loteprednol inhibit the infiltration of eosinophils into the lung after allergen provocation.

[2] = tested on: eosinophilic granulocytes in the pulmonary lavage fluid; assay: Late-phase eosinophilia in actively sensitized brown Norway rats, single intrapulmonary administration; format: in vivo; conditions: 2 h before allergen provocation
Experimental: as §1

[3] = tested on: eosinophilic granulocytes in the lung; assay: Late-phase eosinophilia in actively sensitized guinea pigs, pulmonary lavage 24 h after allergen provocation; format: in vivo; conditions: guinea pig
[4] = topically administered; cited from earlier work
[5] = topically administered; cited from earlier work; remark: listed apart in the source

Compound	inhibition at 10 µM (TNFα release; 10 μmol/l)	Toxic dose with significant thymus involution [1]	Quotient of toxic dose: therapeutic dose (therapeutic breadth) [1]	Therapeutic dose in late-phase eosinophilia ID50 [2]	inhibition at 0.001 µM (TNFα release; 0.001 μmol/l)	Inhibition of eosinophilia ([3]; 0.001 mg/kg intrapulmonarily)	Inhibition of eosinophilia ([3]; 0.003 mg/kg intrapulmonarily)	Increase of intraocular pressure [4]	Detection in the plasma [5]
CC(C)(C)NCC(O)c1ccc(O)c(CO)c1 (stereo not drawn) [Salbutamol, salbutamol]	17%	–	–	–	–	–	–	–	–
CCCC1O[C@@H]2C[C@H]3[C@@H]4CCC5=CC(=O)C=C[C@]5(C)[C@H]4[C@@H](O)C[C@]3(C)[C@]2(C(=O)CO)O1 (stereo partly drawn) [Budesonide, budesonide]	–	500 µg/kg	5 ×10^3	0.1 µg/kg	–	–	–	–	–
C[C@@H]1C[C@H]2[C@@H]3C[C@H](F)C4=CC(=O)C=C[C@]4(C)[C@@]3(F)[C@@H](O)C[C@]2(C)[C@@]1(O)C(=O)SCF [Fluticasone, fluticasone]	–	1000 µg/kg	33 ×10^3	0.03 µg/kg	–	–	–	–	–
CCOC(=O)O[C@]1(C(=O)OCCl)CC[C@H]2[C@@H]3CCC4=CC(=O)C=C[C@]4(C)[C@H]3[C@@H](O)C[C@@]21C [Loteprednol, loteprednol]	–	20000 µg/kg	45.5 ×10^3	0.44 µg/kg	1%	10.5%	21.8%	does not increase the intraocular pressure	could not be detected in the plasma

Reference: US7521438B1, “Combination of loteprednol and β2-adrenoceptor agonists” (MEDA Pharma GmbH & Co. KG, priority 1999, dated 2009)
